Values joined by “and” are separate entries in the source; they are usually repeats but may differ in a detail not shown here. Equal entries are not always repeated. Blank lines part the entries; values can stand above or below the molecule they belong to.
Test system: 743489-274-T-PDC complex spheroid viability
Assay: Anticancer human tumor 743489-274-T-PDC patient-derived renal cell carcinoma cell line growth inhibition
Conditions: for viability, T/C: stronger effect = lower value
Summary of the method: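 Multicellular complex spheroids of tumor cells with human endothelial cells (HUVEC) and mesenchymal stem cells; the LSD1 inhibitor iadademstat was combined with standard-of-care or investigational agents. Top concentration at or near clinical Cmax, half-log dilutions; final DMSO ≤0.25%.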

[1] = curve of first compound, second compound 0.1 µM
[2] = curve of first compound, second compound 0.316 µM
[3] = curve of first compound, second compound 1 µM
[4] = curve of first compound, second compound 3.16 µM
[5] = curve of first compound, second compound 10 µM
[6] = second compound 0.1 µM, first compound 0.0316 µM
[7] = second compound 0.1 µM, first compound 0.1 µM
[8] = second compound 0.316 µM, first compound 0.0316 µM
[9] = second compound 0.316 µM, first compound 0.1 µM
[10] = second compound 1 µM, first compound 0.0316 µM
[11] = second compound 1 µM, first compound 0.1 µM
[12] = second compound 3.16 µM, first compound 0.0316 µM
[13] = second compound 3.16 µM, first compound 0.1 µM
[14] = second compound 10 µM, first compound 0.0316 µM
[15] = second compound 10 µM, first compound 0.1 µM
[16] = second compound 0.1 µM, first compound 0.000949 µM
[17] = second compound 0.1 µM, first compound 0.003 µM
[18] = second compound 0.1 µM, first compound 0.00949 µM
[19] = second compound 0.1 µM, first compound 0.03 µM
[20] = second compound 0.1 µM, first compound 0.0949 µM
[21] = second compound 0.1 µM, first compound 0.3 µM
[22] = second compound 0.316 µM, first compound 0.000949 µM
[23] = second compound 0.316 µM, first compound 0.003 µM
[24] = second compound 0.316 µM, first compound 0.00949 µM
[25] = second compound 0.316 µM, first compound 0.03 µM
[26] = second compound 0.316 µM, first compound 0.0949 µM
[27] = second compound 0.316 µM, first compound 0.3 µM
[28] = second compound 1 µM, first compound 0.000949 µM
[29] = second compound 1 µM, first compound 0.003 µM
[30] = second compound 1 µM, first compound 0.00949 µM
[31] = second compound 1 µM, first compound 0.03 µM
[32] = second compound 1 µM, first compound 0.0949 µM
[33] = second compound 1 µM, first compound 0.3 µM
[34] = second compound 3.16 µM, first compound 0.000949 µM
[35] = second compound 3.16 µM, first compound 0.003 µM
[36] = second compound 3.16 µM, first compound 0.00949 µM
[37] = second compound 3.16 µM, first compound 0.03 µM
[38] = second compound 3.16 µM, first compound 0.0949 µM
[39] = second compound 3.16 µM, first compound 0.3 µM
[40] = second compound 10 µM, first compound 0.000949 µM
[41] = second compound 10 µM, first compound 0.003 µM
[42] = second compound 10 µM, first compound 0.00949 µM
[43] = second compound 10 µM, first compound 0.03 µM
[44] = second compound 10 µM, first compound 0.0949 µM
[45] = second compound 10 µM, first compound 0.3 µM
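Further: spheroids exposed to compounds for 7 days before readout.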
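Wherever viability, T/C is given: 100% = DMSO vehicle control wells.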

SMILES: CC(C)CC(NC(=O)C(Cc1ccccc1)NC(=O)c1cnccn1)B(O)O (configuration not stated) + NC1CC1c1ccc(-c2cccc(O)c2)cc1
IC50 [1]: 7.45 nM | IC50 [2]: 7.39 nM | IC50 [3]: 7.95 nM | IC50 [4]: 7.95 nM | IC50 [5]: 6.77 nM | viability, T/C (second compound 0.1 µM, first compound 0.000316 µM): 122% | viability, T/C (second compound 0.1 µM, first compound 0.001 µM): 102% | viability, T/C (second compound 0.1 µM, first compound 0.00316 µM): 93.9% | viability, T/C (second compound 0.1 µM, first compound 0.01 µM): 33.9% | viability, T/C [6]: 32.3% | viability, T/C [7]: 24.2% | viability, T/C (second compound 0.316 µM, first compound 0.000316 µM): 119% | viability, T/C (second compound 0.316 µM, first compound 0.001 µM): 109% | viability, T/C (second compound 0.316 µM, first compound 0.00316 µM): 111% | viability, T/C (second compound 0.316 µM, first compound 0.01 µM): 25.3% | viability, T/C [8]: 30.7% | viability, T/C [9]: 28.5% | viability, T/C (second compound 1 µM, first compound 0.000316 µM): 113% | viability, T/C (second compound 1 µM, first compound 0.001 µM): 104% | viability, T/C (second compound 1 µM, first compound 0.00316 µM): 102% | viability, T/C (second compound 1 µM, first compound 0.01 µM): 35.9% | viability, T/C [10]: 36.8% | viability, T/C [11]: 19.4% | viability, T/C (second compound 3.16 µM, first compound 0.000316 µM): 123% | viability, T/C (second compound 3.16 µM, first compound 0.001 µM): 136% | viability, T/C (second compound 3.16 µM, first compound 0.00316 µM): 105% | viability, T/C (second compound 3.16 µM, first compound 0.01 µM): 36.5% | viability, T/C [12]: 28.5% | viability, T/C [13]: 20.7% | viability, T/C (second compound 10 µM, first compound 0.000316 µM): 110% | viability, T/C (second compound 10 µM, first compound 0.001 µM): 118% | viability, T/C (second compound 10 µM, first compound 0.00316 µM): 98.7% | viability, T/C (second compound 10 µM, first compound 0.01 µM): 25% | viability, T/C [14]: 25.5% | viability, T/C [15]: 14.5%

SMILES: Nc1ccn(C2OC(CO)C(O)C2(F)F)c(=O)n1 (configuration not stated) + NC1CCC(NC2CC2c2ccccc2)CC1
IC50 [1]: > 300 nM | IC50 [2]: > 300 nM | IC50 [3]: > 300 nM | IC50 [4]: > 300 nM | IC50 [5]: > 300 nM | viability, T/C [16]: 77.8% | viability, T/C [17]: 72.3% | viability, T/C [18]: 71.5% | viability, T/C [19]: 81.7% | viability, T/C [20]: 68.9% | viability, T/C [21]: 78.4% | viability, T/C [22]: 86.3% | viability, T/C [23]: 80% | viability, T/C [24]: 74.6% | viability, T/C [25]: 79.2% | viability, T/C [26]: 73.2% | viability, T/C [27]: 69.6% | viability, T/C [28]: 68.5% | viability, T/C [29]: 71.7% | viability, T/C [30]: 74.6% | viability, T/C [31]: 84.9% | viability, T/C [32]: 76.5% | viability, T/C [33]: 79.1% | viability, T/C [34]: 81.5% | viability, T/C [35]: 80% | viability, T/C [36]: 85.2% | viability, T/C [37]: 78.8% | viability, T/C [38]: 76.4% | viability, T/C [39]: 68.8% | viability, T/C [40]: 91.7% | viability, T/C [41]: 78.8% | viability, T/C [42]: 84.8% | viability, T/C [43]: 92.7% | viability, T/C [44]: 74.3% | viability, T/C [45]: 80.5%

SMILES: Nc1ncn(C2CC(O)C(CO)S2)c(=O)n1 (configuration not stated) + NC1CC1c1ccc(-c2cccc(O)c2)cc1
IC50 [1]: > 300 nM | IC50 [2]: > 300 nM | IC50 [3]: > 300 nM | IC50 [4]: > 300 nM | IC50 [5]: > 300 nM | viability, T/C [16]: 102% | viability, T/C [17]: 94.5% | viability, T/C [18]: 105% | viability, T/C [19]: 85.3% | viability, T/C [20]: 76.2% | viability, T/C [21]: 74.8% | viability, T/C [22]: 95.4% | viability, T/C [23]: 102% | viability, T/C [24]: 90.6% | viability, T/C [25]: 83.3% | viability, T/C [26]: 74.3% | viability, T/C [27]: 71.1% | viability, T/C [28]: 94.2% | viability, T/C [29]: 89.6% | viability, T/C [30]: 81.5% | viability, T/C [31]: 77.4% | viability, T/C [32]: 73.5% | viability, T/C [33]: 73.2% | viability, T/C [34]: 96.5% | viability, T/C [35]: 85.8% | viability, T/C [36]: 83% | viability, T/C [37]: 78.5% | viability, T/C [38]: 75.1% | viability, T/C [39]: 78% | viability, T/C [40]: 92.3% | viability, T/C [41]: 85.1% | viability, T/C [42]: 86.9% | viability, T/C [43]: 89% | viability, T/C [44]: 67.8% | viability, T/C [45]: 64%

SMILES: CCN(c1cc(-c2ccc(CN3CCOCC3)cc2)cc(C(=O)NCc2c(C)cc(C)[nH]c2=O)c1C)C1CCOCC1 + NC1CCC(NC2CC2c2ccccc2)CC1
IC50 [1]: > 3000 nM | IC50 [2]: > 3000 nM | IC50 [3]: > 3000 nM | IC50 [4]: > 3000 nM | IC50 [5]: > 3000 nM | viability, T/C [18]: 104% | viability, T/C [19]: 103% | viability, T/C [20]: 101% | viability, T/C [21]: 102% | viability, T/C (second compound 0.1 µM, first compound 0.949 µM): 107% | viability, T/C (second compound 0.1 µM, first compound 3 µM): 104% | viability, T/C [24]: 91.1% | viability, T/C [25]: 98.5% | viability, T/C [26]: 97.4% | viability, T/C [27]: 96.2% | viability, T/C (second compound 0.316 µM, first compound 0.949 µM): 104% | viability, T/C (second compound 0.316 µM, first compound 3 µM): 102% | viability, T/C [30]: 99.8% | viability, T/C [31]: 106% | viability, T/C [32]: 101% | viability, T/C [33]: 105% | viability, T/C (second compound 1 µM, first compound 0.949 µM): 104% | viability, T/C (second compound 1 µM, first compound 3 µM): 106% | viability, T/C [36]: 107% | viability, T/C [37]: 106% | viability, T/C [38]: 110% | viability, T/C [39]: 105% | viability, T/C (second compound 3.16 µM, first compound 0.949 µM): 113% | viability, T/C (second compound 3.16 µM, first compound 3 µM): 111% | viability, T/C [42]: 109% | viability, T/C [43]: 107% | viability, T/C [44]: 108% | viability, T/C [45]: 95.7% | viability, T/C (second compound 10 µM, first compound 0.949 µM): 100% | viability, T/C (second compound 10 µM, first compound 3 µM): 104%

IC50 (compound alone, run of 11/29/2021): > 10000 nM
SMILES: NC1CCC(NC2CC2c2ccccc2)CC1 (configuration not stated)
viability, T/C (compound 0.316 µM): 105% and 107%

SMILES: O=C(c1cc(Cc2n[nH]c(=O)c3ccccc23)ccc1F)N1CCN(C(=O)C2CC2)CC1 + NC1CCC(NC2CC2c2ccccc2)CC1
IC50 [1]: > 10000 nM | IC50 [2]: > 10000 nM | IC50 [3]: > 10000 nM | IC50 [4]: > 10000 nM | IC50 [5]: > 10000 nM | viability, T/C [6]: 112% | viability, T/C [7]: 111% | viability, T/C (second compound 0.1 µM, first compound 0.316 µM): 101% | viability, T/C (second compound 0.1 µM, first compound 1 µM): 101% | viability, T/C (second compound 0.1 µM, first compound 3.16 µM): 110% | viability, T/C (second compound 0.1 µM, first compound 10 µM): 106% | viability, T/C [8]: 104% | viability, T/C [9]: 106% | viability, T/C (second compound 0.316 µM, first compound 0.316 µM): 120% | viability, T/C (second compound 0.316 µM, first compound 1 µM): 107% | viability, T/C (second compound 0.316 µM, first compound 3.16 µM): 124% | viability, T/C (second compound 0.316 µM, first compound 10 µM): 100% | viability, T/C [10]: 114% | viability, T/C [11]: 100% | viability, T/C (second compound 1 µM, first compound 0.316 µM): 106% | viability, T/C (second compound 1 µM, first compound 1 µM): 110% | viability, T/C (second compound 1 µM, first compound 3.16 µM): 111% | viability, T/C (second compound 1 µM, first compound 10 µM): 108% | viability, T/C [12]: 117% | viability, T/C [13]: 129% | viability, T/C (second compound 3.16 µM, first compound 0.316 µM): 120% | viability, T/C (second compound 3.16 µM, first compound 1 µM): 98.8% | viability, T/C (second compound 3.16 µM, first compound 3.16 µM): 100% | viability, T/C (second compound 3.16 µM, first compound 10 µM): 113% | viability, T/C [14]: 108% | viability, T/C [15]: 116% | viability, T/C (second compound 10 µM, first compound 0.316 µM): 110% | viability, T/C (second compound 10 µM, first compound 1 µM): 119% | viability, T/C (second compound 10 µM, first compound 3.16 µM): 116% | viability, T/C (second compound 10 µM, first compound 10 µM): 89%
